{
  "source": "patent US9034922B2",
  "about": "“Composition for maintaining function of platelets” (THE UNIVERSITY OF TOKYO, priority 2010, dated 2015)",
  "format_in_all_cases": "biochemical",
  "key": {"[1]": {"biological_target": "T1, Matrix metalloproteinase 14 (MMP-14) (Homo sapiens, UniProt P50281)", "T1 construct": "purchased Calbiochem 475935", "test": "Enzyme inhibition experiment, MMP-14", "details": "444221 substrate, 37° C., 5 hours", "procedure": "Matrix metalloproteinase 14 (MMP-14) (manufactured by Calbiochem, product number: 475935)\n444221 substrate (DNP-Pro-Cha-Gly-Cys(Me)-His-Ala-Lys(Nma)-NH2, custom synthesis): excitation wavelength at 355 nm, emission wavelength at 460 nm\n(§1) The enzyme reaction was carried out using the enzymes and substrates. Specifically, if necessary, the enzyme was activated in advance with APMA (final concentration 1 mmol/L, p-aminophenylmercuric acetate, manufactured by Sigma-Aldrich Co., A9563) according to information from the manufacturer. Then, in a 96-well plate for fluorescence measurement, 90 μL of an enzyme solution prepared with Assay Buffer A (50 mmol/L Tris-HCl buffer (pH 7.5) containing 200 mmol/L sodium chloride, 5 mmol/L calcium chloride, 10 μmol/L zinc sulfate, and 2 mg/mL bovine serum albumin) was mixed with 90 μL of the substrate adjusted to be 20 μmol/L with Assay Buffer B (50 mmol/L Tris-HCl buffer (pH 7.5) containing 200 mmol/L sodium chloride, 5 mmol/L calcium chloride, 10 μmol/L zinc sulfate, and 0.05% PLURONIC F-68), and incubated for reaction at 25° C. or 37° C. for several hours. Moreover, the fluorescence intensities before and after the reaction were measured using a fluorometer to determine the enzyme activity. An inhibition rate was obtained based on the enzyme activities in the presence and absence of the test substances, and the 50% inhibitory concentration (IC50) was calculated."}, "[2]": {"biological_target": "T2, Matrix metalloproteinase 2 (MMP-2) (Homo sapiens, UniProt P08253)", "T2 construct": "purchased Calbiochem 444213", "T2 sequence (P08253 110-660)": "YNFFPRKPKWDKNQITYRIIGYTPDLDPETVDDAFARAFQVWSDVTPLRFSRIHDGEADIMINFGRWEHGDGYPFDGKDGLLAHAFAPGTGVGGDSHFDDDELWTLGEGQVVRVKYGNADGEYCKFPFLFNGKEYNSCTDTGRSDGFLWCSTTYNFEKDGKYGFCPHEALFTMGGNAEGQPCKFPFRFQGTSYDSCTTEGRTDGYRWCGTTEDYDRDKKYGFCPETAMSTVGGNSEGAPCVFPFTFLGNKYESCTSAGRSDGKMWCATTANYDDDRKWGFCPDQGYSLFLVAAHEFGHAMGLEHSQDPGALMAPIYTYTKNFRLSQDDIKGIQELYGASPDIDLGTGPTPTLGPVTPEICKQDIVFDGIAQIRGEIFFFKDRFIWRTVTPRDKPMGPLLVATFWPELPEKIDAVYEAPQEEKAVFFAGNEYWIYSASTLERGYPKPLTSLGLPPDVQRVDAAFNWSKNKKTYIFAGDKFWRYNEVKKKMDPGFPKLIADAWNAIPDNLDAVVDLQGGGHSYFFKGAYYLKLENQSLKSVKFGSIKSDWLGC", "test": "Enzyme inhibition experiment, MMP-2", "details": "3163 substrate, 37° C., 5 hours", "procedure": "as §1, with “activity.” for “activity. An inhibition rate was obtained based on the enzyme activities in the presence and absence of the test substances, and the 50% inhibitory concentration (IC50) was calculated.”"}, "[3]": {"biological_target": "T3, A disintegrin and metalloproteinase 10 (ADAM10) (Homo sapiens, UniProt O14672)", "T3 construct": "purchased Funakoshi Co., Ltd. 936-AD-020", "T3 sequence (O14672 214-672 limits assumed)": "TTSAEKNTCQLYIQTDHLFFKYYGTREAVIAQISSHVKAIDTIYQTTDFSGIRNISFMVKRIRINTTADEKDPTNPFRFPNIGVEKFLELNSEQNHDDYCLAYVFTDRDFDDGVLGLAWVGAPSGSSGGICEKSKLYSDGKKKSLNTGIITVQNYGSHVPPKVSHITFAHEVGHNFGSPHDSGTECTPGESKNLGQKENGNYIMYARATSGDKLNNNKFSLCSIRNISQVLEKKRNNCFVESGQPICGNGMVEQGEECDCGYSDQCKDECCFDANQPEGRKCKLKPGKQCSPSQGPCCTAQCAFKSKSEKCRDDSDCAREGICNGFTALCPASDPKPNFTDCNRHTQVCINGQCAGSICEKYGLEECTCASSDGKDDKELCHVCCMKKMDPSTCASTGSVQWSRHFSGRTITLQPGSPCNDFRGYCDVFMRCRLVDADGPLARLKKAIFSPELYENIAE", "test": "Enzyme inhibition experiment, ADAM10", "details": "degree somewhat low in comparison with ADAM17", "procedure": "A disintegrin and metalloproteinase 10 (ADAM10) (manufactured by Funakoshi Co., Ltd., product code: 936-AD-020) and\nTACE substrate (the same as one used in Test Example 3): excitation wavelength at 355 nm, emission wavelength at 460 nm\nas §1"}},
  "data": [
    {"smiles": "CC#CCOc1ccc(S(=O)(=O)CC(c2ccc(CN(CC)CC)cc2)N(O)C=O)cc1", "note": "(stereo not drawn) [Compound I-1, N-[2-(4-But-2-ynyloxybenzenesulfonyl)-1-(4-diethylaminomethylphenyl)ethyl]-N-hydroxyformamide]", "values": [
      {"measurement": "IC50", "setting": "[1]", "result": 1000, "unit": "nM"},
      {"measurement": "IC50", "setting": "[2]", "result": 150, "unit": "nM"},
      {"measurement": "suppression of ADAM10 (in words)", "setting": "[3]", "result": "suppressed ADAM10"}
    ]},
    {"smiles": "CC#CCOc1ccc(S(=O)(=O)CC(c2ccc(CNS(C)(=O)=O)cc2)N(O)C=O)cc1", "note": "(stereo not drawn) [Compound I-4, N-{4-[2-(4-But-2-ynyloxybenzenesulfonyl)-1-(formylhydroxyamino)ethyl]benzyl}methanesulfonamide]", "values": [
      {"measurement": "IC50", "setting": "[1]", "result": 1400, "unit": "nM"},
      {"measurement": "IC50", "setting": "[2]", "result": 290, "unit": "nM"},
      {"measurement": "suppression of ADAM10 (in words)", "setting": "[3]", "result": "suppressed ADAM10"}
    ]}
  ]
}
